{"source": "patent EP2766361B1", "about": "“8-CARBAMOYL-2-(2,3-DISUBSTITUTED PYRID-6-YL)-1,2,3,4-TETRAHYDROISOQUINOLINE DERIVATIVES AS APOPTOSIS-INDUCING AGENTS FOR THE TREATMENT OF CANCER AND IMMUNE AND AUTOIMMUNE DISEASES” (priority 2011, dated 2013)", "tested_on": "mouse FL5.12 cells transfected with Bcl-xL", "assay": "FL5.12 cellular assay (cell viability, CellTiter-Glo)", "type": "cell-based", "details": "IL-3-depleted, 3% FBS assay media, 24 hours, read-out: FL5.12 Bcl-xL, -IL3, EC50", "description": "Cell viability was assayed using the CellTiter-Glo assay (Promega Corp., Madison, WI) according to the manufacturer instructions. Individual determinations were the result of duplicate values. […] Table 2. In Vitro Data", "note": "pEC50: −log10 of the molar value.", "data": [{"smiles": "Cc1c(-c2ccc(N3CCc4cccc(C(=O)Nc5nc6ccccc6s5)c4C3)nc2C(=O)NS(=O)(=O)C2CC2)cc(C#N)n1CC12CC3CC(CC(C3)C1)C2", "note": "[Example 36, N-(1,3-benzothiazol-2-yl)-2-{5-[5-cyano-2-methyl-1-(tricyclo[3.3.1.1^3,7]dec-1-ylmethyl)-1H-pyrrol-3-yl]-6-[(cyclopropylsulfonyl)carbamoyl]pyridin-2-yl}-1,2,3,4-tetrahydroisoquinoline-8-carboxamide]", "values": [{"measurement": "pEC50", "result": 9.10}]}, {"smiles": "COCCOC12CC3CC(CC(Cn4cc(-c5ccc(N6CCc7cccc(C(=O)Nc8nc9ccccc9s8)c7C6)nc5C(=O)O)cn4)(C3)C1)C2", "note": "[Example 8, 6-[8-(1,3-benzothiazol-2-ylcarbamoyl)-3,4-dihydroisoquinolin-2(1H)-yl]-3-(1-{[3-(2-methoxyethoxy)tricyclo[3.3.1.1^3,7]dec-1-yl]methyl}-1H-pyrazol-4-yl)pyridine-2-carboxylic acid]", "values": [{"measurement": "pEC50", "result": 6.83}]}, {"smiles": "COCCC1(Cn2cc(-c3ccc(N4CCc5cccc(C(=O)Nc6nc7ccccc7s6)c5C4)nc3C(=O)O)cn2)C2CC3CC(C2)CC1C3", "note": "(centres unmarked) [Example 56, 6-[8-(1,3-benzothiazol-2-ylcarbamoyl)-3,4-dihydroisoquinolin-2(1H)-yl]-3-(1-{[2-(2-methoxyethyl)tricyclo[3.3.1.1^3,7]dec-2-yl]methyl}-1H-pyrazol-4-yl)pyridine-2-carboxylic acid]", "values": [{"measurement": "pEC50", "result": 7.77}]}, {"smiles": "Cc1c(-c2ccc(N3CCc4cccc(C(=O)Nc5nc6ccccc6s5)c4C3)nc2C(=O)O)cccc1N(C)CC12CC3CC(CC(C3)C1)C2", "note": "[Example 55, 6-[8-(1,3-benzothiazol-2-ylcarbamoyl)-3,4-dihydroisoquinolin-2(1H)-yl]-3-(2-methyl-3-{methyl[tricyclo[3.3.1.1^3,7]dec-1-ylmethyl]amino}phenyl)pyridine-2-carboxylic acid]", "values": [{"measurement": "pEC50", "result": 7.33}]}, {"smiles": "Cc1c(-c2ccc(N3CCc4cccc(C(=O)Nc5nc6ccccc6s5)c4C3)nc2C(=O)O)cccc1S(=O)(=O)NC12CC3CC(CC(C3)C1)C2", "note": "[Example 51, 6-[8-(1,3-benzothiazol-2-ylcarbamoyl)-3,4-dihydroisoquinolin-2(1H)-yl]-3-{2-methyl-3-[tricyclo[3.3.1.1^3,7]dec-1-ylsulfamoyl]phenyl}pyridine-2-carboxylic acid]", "values": [{"measurement": "pEC50", "result": 6.79}]}, {"smiles": "COC12CC3CC(CC(Cn4ncc(-c5ccc(N6CCc7cccc(C(=O)Nc8nc9ccccc9s8)c7C6)nc5C(=O)NS(=O)(=O)N5CCOCC5)c4C)(C3)C1)C2", "note": "[Example 39, N-(1,3-benzothiazol-2-yl)-2-{5-(1-{[3-methoxytricyclo[3.3.1.1^3,7]dec-1-yl]methyl}-5-methyl-1 H-pyrazol-4-yl)-6-[(morpholin-4-ylsulfonyl)carbamoyl]pyridin-2-yl}-1,2,3,4-tetrahydroisoquinoline-8-carboxamide]", "values": [{"measurement": "pEC50", "result": 9.22}]}, {"smiles": "Cc1c(-c2ccc(N3CCc4cccc(C(=O)Nc5nc6ccccc6s5)c4C3)nc2C(=O)O)cc(C#N)n1CC12CC3CC(CC(C3)O1)C2", "note": "[Example 71, 6-[8-(1,3-benzothiazol-2-ylcarbamoyl)-3,4-dihydroisoquinolin-2(1H)-yl]-3-[5-cyano-2-methyl-1-(2-oxatricyclo[3.3.1.1^3,7]dec-1-ylmethyl)-1H-pyrrol-3-yl]pyridine-2-carboxylic acid]", "values": [{"measurement": "pEC50", "result": 9.00}]}, {"smiles": "Cc1c(-c2ccc(N3CCc4cccc(C(=O)Nc5nc6ccccc6s5)c4C3)nc2C(=O)NS(C)(=O)=O)cnn1CC12CC3CC(CC(C3)C1)C2", "note": "[Example 17, N-(1,3-benzothiazol-2-yl)-2-{6-[(methylsulfonyl)carbamoyl]-5-[5-methyl-1-(tricyclo[3.3.1.1^3,7]dec-1-ylmethyl)-1H-pyrazol-4-yl]pyridin-2-yl}-1,2,3,4-tetrahydroisoquinoline-8-carboxamide]", "values": [{"measurement": "pEC50", "result": 9.00}]}, {"smiles": "O=C(Nc1nc2ccccc2s1)c1cccc2c1CN(c1ccc(-c3cnn(CC45CC6CC(CC(O)(C6)C4)C5)c3)c(C(=O)O)n1)CC2", "note": "[Example 6, 6-[8-(1,3-benzothiazol-2-ylcarbamoyl)-3,4-dihydroisoquinolin-2(1H)-yl]-3-(1-{[3-hydroxytricyclo[3.3.1.1^3,7]dec-1-yl]methyl}-1H-pyrazol-4-yl)pyridine-2-carboxylic acid]", "values": [{"measurement": "pEC50", "result": 6.84}]}, {"smiles": "O=C(Nc1nc2ccccc2s1)c1cccc2c1CN(c1ccc(-c3cnn(CC4CCC5(CCC5)CC4)c3)c(C(=O)O)n1)CC2", "note": "[Example 4, 6-[8-(1,3-benzothiazol-2-ylcarbamoyl)-3,4-dihydroisoquinolin-2(1H)-yl]-3-[1-(spiro[3.5]non-7-ylmethyl)-1H-pyrazol-4-yl]pyridine-2-carboxylic acid]", "values": [{"measurement": "pEC50", "result": 6.04}]}, {"smiles": "O=C(Nc1nc2ccccc2s1)c1cccc2c1CN(c1ccc(-c3cnn(CC45CC6CC(CC(Br)(C6)C4)C5)c3)c(C(=O)O)n1)CC2", "note": "[Example 11, 6-[8-(1,3-benzothiazol-2-ylcarbamoyl)-3,4-dihydroisoquinolin-2(1H)-yl]-3-(1-{[3-bromotricyclo[3.3.1.1^3,7]dec-1-yl]methyl}-1H-pyrazol-4-yl)pyridine-2-carboxylic acid]", "values": [{"measurement": "pEC50", "result": 7.96}]}, {"smiles": "Cc1c(-c2ccc(N3CCc4cccc(C(=O)Nc5nc6ccccc6s5)c4C3)nc2C(=O)O)cc(C#N)n1CCC12CC3CC(CC(C3)C1)C2", "note": "[Example 34, 6-[8-(1,3-benzothiazol-2-ylcarbamoyl)-3,4-dihydroisoquinolin-2(1H)-yl]-3-{5-cyano-2-methyl-1-[2-(tricyclo[3.3.1.1^3,7]dec-1-yl)ethyl]-1H-pyrrol-3-yl}pyridine-2-carboxylic acid]", "values": [{"measurement": "pEC50", "result": 6.82}]}, {"smiles": "COC12CC3CC(CC(Cn4cc(-c5ccc(N6CCc7cccc(C(=O)Nc8nc9ccccc9s8)c7C6)nc5C(=O)O)cn4)(C3)C1)C2", "note": "[Example 7, 6-[8-(1,3-benzothiazol-2-ylcarbamoyl)-3,4-dihydroisoquinolin-2(1H)-yl]-3-(1-{[3-methoxytricyclo[3.3.1.1^3,7]dec-1-yl]methyl}-1H-pyrazol-4-yl)pyridine-2-carboxylic acid]", "values": [{"measurement": "pEC50", "result": 7.43}]}, {"smiles": "COC12CC3(C)CC(C)(CC(Cn4ncc(-c5ccc(N6CCc7cccc(C(=O)Nc8nc9ccccc9s8)c7C6)nc5C(=O)O)c4C)(C3)C1)C2", "note": "[Example 38, 6-[8-(1,3-benzothiazol-2-ylcarbamoyl)-3,4-dihydroisoquinolin-2(1H)-yl]-3-(1-{[3-methoxy-5,7-dimethyltricyclo[3.3.1.1^3,7]dec-1-yl]methyl}-5-methyl-1H-pyrazol-4-yl)pyridine-2-carboxylic acid]", "values": [{"measurement": "pEC50", "result": 10.00}]}, {"smiles": "CC12CC3CC(C)(C1)CC(Cn1cc(-c4ccc(N5CCc6cccc(C(=O)Nc7nc8ccccc8s7)c6C5)nc4C(=O)O)cn1)(C3)C2", "note": "[Example 5, 6-[8-(1,3-benzothiazol-2-ylcarbamoyl)-3,4-dihydroisoquinolin-2(1H)-yl]-3-(1-{[3,5-dimethyltricyclo[3.3.1.1^3,7]dec-1-yl]methyl}-1H-pyrazol-4-yl)pyridine-2-carboxylic acid]", "values": [{"measurement": "pEC50", "result": 8.70}]}, {"smiles": "Cc1c(NC(=O)C23CC4CC(CC(C4)C2)C3)cccc1-c1ccc(N2CCc3cccc(C(=O)Nc4nc5ccccc5s4)c3C2)nc1C(=O)O", "note": "[Example 50, 6-[8-(1,3-benzothiazol-2-ylcarbamoyl)-3,4-dihydroisoquinolin-2(1H)-yl]-3-(2-methyl-3-{[tricyclo[3.3.1.1^3,7]dec-1-ylcarbonyl]amino}phenyl)pyridine-2-carboxylic acid]", "values": [{"measurement": "pEC50", "result": "< 6.00"}]}, {"smiles": "Cc1c(C(=O)N(C)C2C3CC4CC(C3)CC2C4)cccc1-c1ccc(N2CCc3cccc(C(=O)Nc4nc5ccccc5s4)c3C2)nc1C(=O)O", "note": "(centres unmarked) [Example 64]", "values": [{"measurement": "pEC50", "result": 7.59}]}, {"smiles": "Cc1nn(CC23CC4CC(CC(C4)C2)C3)c(C)c1-c1ccc(N2CCc3cccc(C(=O)Nc4nc5ccccc5s4)c3C2)nc1C(=O)O", "note": "[Example 2, 6-[8-(1,3-benzothiazol-2-ylcarbamoyl)-3,4-dihydroisoquinolin-2(1H)-yl]-3-[3,5-dimethyl-1-(tricyclo[3.3.1.1^3,7]dec-1-ylmethyl)-1H-pyrazol-4-yl]pyridine-2-carboxylic acid]", "values": [{"measurement": "pEC50", "result": "> 9.00"}]}, {"smiles": "CC12CC3(C)CC(C)(C1)CC(Cn1cc(-c4ccc(N5CCc6cccc(C(=O)Nc7nc8ccccc8s7)c6C5)nc4C(=O)O)cn1)(C2)C3", "note": "[Example 9, 6-[8-(1,3-benzothiazol-2-ylcarbamoyl)-3,4-dihydroisoquinolin-2(1H)-yl]-3-{1-[(3,5,7-trimethyltricyclo[3.3.1.1^3,7]dec-1-yl)methyl]-1H-pyrazol-4-yl}pyridine-2-carboxylic acid]", "values": [{"measurement": "pEC50", "result": 8.52}]}, {"smiles": "Cc1c(-c2ccc(N3CCc4cccc(C(=O)Nc5nc6cccnc6s5)c4C3)nc2C(=O)O)cnn1CC12CC3CC(CC(C3)O1)C2", "note": "[Example 67, 3-[5-methyl-1-(2-oxatricyclo[3.3.1.1^3,7]dec-1-ylmethyl)-1H-pyrazol-4-yl]-6-[8-([1,3]thiazolo[5,4-b]pyridin-2-ylcarbamoyl)-3,4-dihydroisoquinolin-2(1H)-yl]pyridine-2-carboxylic acid]", "values": [{"measurement": "pEC50", "result": 8.05}]}, {"smiles": "O=C(Nc1nc2ccccc2s1)c1cccc2c1CN(c1ccc(-c3cccc(OCC45CC6CC(CC(C6)C4)C5)c3)c(C(=O)O)n1)CC2", "note": "[Example 22, 6-[8-(1,3-benzothiazol-2-ylcarbamoyl)-3,4-dihydroisoquinolin-2(1H)-yl]-3-{3-[tricyclo[3.3.1.1^3,7]dec-1-ylmethoxy]phenyl}pyridine-2-carboxylic acid]", "values": [{"measurement": "pEC50", "result": "< 6.00"}]}, {"smiles": "N#Cc1c(SC23CC4CC(CC(C4)C2)C3)cccc1-c1ccc(N2CCc3cccc(C(=O)Nc4nc5ccccc5s4)c3C2)nc1C(=O)O", "note": "[Example 48, 6-[8-(1,3-benzothiazol-2-ylcarbamoyl)-3,4-dihydroisoquinolin-2(1H)-yl]-3-{2-cyano-3-[tricyclo[3.3.1.1^3,7]dec-1-ylsulfanyl]phenyl}pyridine-2-carboxylic acid]", "values": [{"measurement": "pEC50", "result": 8.10}]}, {"smiles": "O=C(Nc1nc2ccccc2s1)c1cccc2c1CN(c1ccc(-c3cnn(CC45CC6CC(C4)CC(N4CCOCC4)(C6)C5)c3)c(C(=O)O)n1)CC2", "note": "[Example 15, 6-[8-(1,3-benzothiazol-2-ylcarbamoyl)-3,4-dihydroisoquinolin-2(1H)-yl]-3-(1-{[3-(morpholin-4-yl)tricyclo[3.3.1.1^3,7]dec-1-yl]methyl}-1H-pyrazol-4-yl)pyridine-2-carboxylic acid]", "values": [{"measurement": "pEC50", "result": 6.96}]}]}
